Columns and labels:
[1] = molecular target: T1, human M1 receptor (hCHRM1) (Homo sapiens, UniProt P11229); assay: Measurement of M1 receptor positive allosteric modulator (M1PAM) activity, Ca2+ fluorescence by FDSS/μ cell (Experimental Example 2); assay type: cell-based; conditions: for activity (%) at 10 μM: 10 μM test compound, 100% = acetylcholine 1 μM, 0% = DMSO; for EC50: inflection point of concentration-dependent curve, in presence of acetylcholine at EC20 (0.8-1.0 nM), CHO-K1 cells expressing hCHRM1, read-out: IP value
T1 construct: expressed in transfected cells
T1 sequence (P11229 1-460): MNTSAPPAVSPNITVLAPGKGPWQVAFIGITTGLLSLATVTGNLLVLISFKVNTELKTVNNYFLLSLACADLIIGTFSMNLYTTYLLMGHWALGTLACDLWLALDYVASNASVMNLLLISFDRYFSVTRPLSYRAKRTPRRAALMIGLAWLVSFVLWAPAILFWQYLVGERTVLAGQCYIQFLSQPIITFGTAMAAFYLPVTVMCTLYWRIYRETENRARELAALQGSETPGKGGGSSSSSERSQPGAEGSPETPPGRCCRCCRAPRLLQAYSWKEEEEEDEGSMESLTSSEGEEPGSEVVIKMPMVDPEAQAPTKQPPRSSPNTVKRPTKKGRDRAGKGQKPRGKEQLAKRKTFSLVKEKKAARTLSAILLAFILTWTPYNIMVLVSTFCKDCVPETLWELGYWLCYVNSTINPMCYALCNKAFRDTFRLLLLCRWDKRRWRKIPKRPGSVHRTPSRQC
Description: Measurement of M1 Receptor Positive Allosteric Modulator (M1PAM) Activity
The activity of a test compound in the presence of acetylcholine at EC20 concentration (final concentration 0.8-1.0 nM), which affords an action corresponding to about 20% of the maximum activity, was measured as PAM activity. The method is as follows. CHO-K1 cells stably expressing a human M1 receptor (hCHRM1) were plated on a 384-well black clear bottom plate (BD Falcon) at 5,000 cells/well, and cultured in an incubator at 37° C., 5% CO2 for 1 day. The medium in the cell plate was removed, and a dye solution (prepared by adding Recording medium (DOJINDO LABORATORIES) to a final concentration of 1×concentration, Fluo-4 AM (DOJINDO LABORATORIES) to a final concentration of 2.5 μg/mL, Pluronic F127 (DOJINDO LABORATORIES) to a final concentration of 0.08%, and probenecid (DOJINDO LABORATORIES) to a final concentration of 1.25 mM to assay buffer (HBSS (Invitrogen), 20 mM HEPES (Invitrogen), 0.1% BSA (Wako Pure Chemical Industries, Ltd.))) was added at 30 μL/well. The cells were left standing in the incubator at 37° C., 5% CO2 for 30 min, and further left standing at room temperature for 30 min. A test compound prepared by diluting with assay buffer containing 3.2-4.0 nM acetylcholine was added at 10 μL/well, and the fluorescence was measured by FDSS/μ cell (Hamamatsu Photonics K.K.) for 1 min every 1 second. With the definition that the amount of change in the fluorescence on addition of acetylcholine (final concentration 1 μM) is 100% and that on addition of DMSO instead of a test compound is 0%, the activity (%) of the test compound was calculated, and the inflection point in the concentration-dependent curve of the test compound was calculated as IP values.

[2] = molecular target: T1, human M1 receptor (hCHRM1); assay: Measurement of M1 receptor positive allosteric modulator (M1PAM) activity, Ca2+ fluorescence by FLIPRtetra (Experimental Example 1); assay type: cell-based; conditions: for activity (%) at 10 μM: 10 μM test compound, 100% = acetylcholine 1 μM, 0% = DMSO; for EC50: inflection point of concentration-dependent curve, in presence of acetylcholine at EC20 (0.8-1.0 nM), CHO-K1 cells expressing hCHRM1, read-out: IP value
How it was run: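 CHO-K1 cells stably expressing hCHRM1, loaded with Fluo-4 AM (probenecid), received compound with acetylcholine at EC20 (final 0.8-1.0 nM); Ca2+ fluorescence read 1 min by FLIPRtetra. Activity scaled 0% (DMSO) to 100% (1 μM acetylcholine); IP from inflection point of concentration curve.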

| activity (%) at 10 μM [1] [%] | EC50 [1] [µM] | activity (%) at 10 μM [2] [%] | EC50 [2] [µM] | SMILES |
| --- | --- | --- | --- | --- |
| 97 | 0.0029 |  |  | Cc1c(Cc2ccc(-c3ccn(C)n3)nc2)cc2c(c1Cl)OCN([C@H]1CCC[C@@H]1O)C2=O [Example 99, 8-chloro-3-((1S,2S)-2-hydroxycyclopentyl)-7-methyl-6-((6-(1-methyl-1H-pyrazol-3-yl)pyridin-3-yl)methyl)-2,3-dihydro-4H-1,3-benzoxazin-4-one] |
| 103 | 0.0046 |  |  | Cc1nn(C)cc1-c1ccc(Cc2cc3c(c(F)c2C)OCN([C@H]2CCC[C@@H]2O)C3=O)cn1 [Example 93, 6-((6-(1,3-dimethyl-1H-pyrazol-4-yl)pyridin-3-yl)methyl)-8-fluoro-3-((1S,2S)-2-hydroxycyclopentyl)-7-methyl-2,3-dihydro-4H-1,3-benzoxazin-4-one] |
| 116 | 0.047 |  |  | CCc1cc2c(cc1Cc1ccc(OC)nc1)C(=O)N([C@H]1COCC[C@@H]1O)CO2 [Example 118, 1,5-anhydro-2,4-dideoxy-2-(7-ethyl-6-((6-methoxypyridin-3-yl)methyl)-4-oxo-2H-1,3-benzoxazin-3(4H)-yl)-L-threo-pentitol] |
|  |  | 99 | 0.034 | Cc1ccc(Cc2cc3c(cc2C)OCN([C@H]2CCC[C@@H]2O)C3=O)cn1 [Example 64, 3-((1S,2S)-2-hydroxycyclopentyl)-7-methyl-6-((6-methylpyridin-3-yl)methyl)-2,3-dihydro-4H-1,3-benzoxazin-4-one] |
|  |  | 104 | 0.014 | Cc1ccc(Cc2cc3c(c(C)c2C)OCN([C@H]2COCC[C@@H]2O)C3=O)cn1 [Example 137, 1,5-anhydro-2,4-dideoxy-2-(7,8-dimethyl-6-((6-methylpyridin-3-yl)methyl)-4-oxo-2H-1,3-benzoxazin-3(4H)-yl)-L-threo-pentitol] |
|  |  | 108 | 0.008 | Cc1c(Cc2ccc(-c3cnn(C)c3)nc2)cc2c(c1C)OCN([C@H]1CCCC[C@@H]1O)C2=O (relative stereo) [Example 49, 3-(trans-2-hydroxycyclohexyl)-7,8-dimethyl-6-((6-(1-methyl-1H-pyrazol-4-yl)pyridin-3-yl)methyl)-2,3-dihydro-4H-1,3-benzoxazin-4-one] |
|  |  | 94 | 0.016 | Cc1ccc(Cc2cc3c(c4ccccc24)OCN(CC2CCCO2)C3=O)cn1 (centres unmarked) [Example 58, 6-((6-methylpyridin-3-yl)methyl)-3-(tetrahydrofuran-2-ylmethyl)-2,3-dihydro-4H-naphtho[2,1-e][1,3]oxazin-4-one] |
|  |  | 96 | 0.053 | Cc1cc2c(cc1Cc1ccc(Cl)nc1)C(=O)N([C@H]1CCC[C@@H]1O)CO2 [Example 34, 6-((6-chloropyridin-3-yl)methyl)-3-((1S,2S)-2-hydroxycyclopentyl)-7-methyl-2,3-dihydro-4H-1,3-benzoxazin-4-one] |
|  |  | 99 | 0.035 | Cc1cc(Cc2ccc(-n3cccn3)cc2)cc2c1OCN([C@H]1CCCC[C@@H]1O)C2=O (relative stereo) [Example 65, 3-(trans-2-hydroxycyclohexyl)-8-methyl-6-(4-(1H-pyrazol-1-yl)benzyl)-2,3-dihydro-4H-1,3-benzoxazin-4-one] |
|  |  | 107 | 0.037 | COc1ccc(Cc2cc3c(c(F)c2C)OCN([C@H]2CCC[C@@H]2O)C3=O)cn1 [Example 18, 8-fluoro-3-((1S,2S)-2-hydroxycyclopentyl)-6-((6-methoxypyridin-3-yl)methyl)-7-methyl-2,3-dihydro-4H-1,3-benzoxazin-4-one] |
|  |  | 99 | 0.032 | Cn1cc(-c2ccc(Cc3ccc4c(c3)C(=O)N([C@H]3CCCC[C@@H]3O)CO4)cn2)cn1 (relative stereo) [Example 63, 3-(trans-2-hydroxycyclohexyl)-6-((6-(1-methyl-1H-pyrazol-4-yl)pyridin-3-yl)methyl)-2,3-dihydro-4H-1,3-benzoxazin-4-one] |
|  |  | 93 | 0.051 | O=C1c2cc(CN3CCC(F)(F)C3)c3ccccc3c2OCN1[C@H]1CCC[C@@H]1O [Example 69, 6-((3,3-difluoropyrrolidin-1-yl)methyl)-3-((1S,2S)-2-hydroxycyclopentyl)-2,3-dihydro-4H-naphtho[2,1-e][1,3]oxazin-4-one] |
|  |  | 105 | 0.006 | Cc1ccc(Cc2cc3c(c(F)c2C)OCN([C@H]2CCCC[C@@H]2O)C3=O)cn1 [Example 27, 8-fluoro-3-((1S,2S)-2-hydroxycyclohexyl)-7-methyl-6-((6-methylpyridin-3-yl)methyl)-2,3-dihydro-4H-1,3-benzoxazin-4-one] |
|  |  | 93 | 0.09 | Cc1cc2c(cc1Cc1ccc(-c3cn(C)nc3C)nc1)C(=O)N(CC1CCCO1)CO2 (centres unmarked) [Example 82, 6-((6-(1,3-dimethyl-1H-pyrazol-4-yl)pyridin-3-yl)methyl)-7-methyl-3-(tetrahydrofuran-2-ylmethyl)-2,3-dihydro-4H-1,3-benzoxazin-4-one] |
|  |  | 93 | 0.063 | O=C1c2cc(Cc3ccc(Cl)nc3)c3ccccc3c2OCN1CC1CCCO1 (centres unmarked) [Example 76, 6-((6-chloropyridin-3-yl)methyl)-3-(tetrahydrofuran-2-ylmethyl)-2,3-dihydro-4H-naphtho[2,1-e][1,3]oxazin-4-one] |
|  |  | 98 | 0.046 | Cc1cc2c(cc1Cc1ccc(C#N)cc1)C(=O)N([C@H]1CCC[C@@H]1O)CO2 [Example 67, 4-((3-((1S,2S)-2-hydroxycyclopentyl)-7-methyl-4-oxo-3,4-dihydro-2H-1,3-benzoxazin-6-yl)methyl)benzonitrile] |
|  |  | 105 | 0.0096 | Cc1c(Cc2ccc(Cl)nc2)cc2c(c1C)OCN([C@H]1CCC[C@@H]1O)C2=O [Example 8, 6-((6-chloropyridin-3-yl)methyl)-3-((1S,2S)-2-hydroxycyclopentyl)-7,8-dimethyl-2,3-dihydro-4H-1,3-benzoxazin-4-one] |
|  |  | 92 | 0.023 | Cc1cc2c(cc1Cc1ccc(-c3cn(C)nn3)cc1)C(=O)N(CC1CCCO1)CO2 (centres unmarked) [Example 61, 7-methyl-6-(4-(1-methyl-1H-1,2,3-triazol-4-yl)benzyl)-3-(tetrahydrofuran-2-ylmethyl)-2,3-dihydro-4H-1,3-benzoxazin-4-one] |
|  |  | 92 | 0.019 | COc1c(Cc2ccc(-n3cccn3)nc2)cc2c(c1F)OCN([C@H]1CCC[C@@H]1O)C2=O (relative stereo) [Example 15, 8-fluoro-3-(trans-2-hydroxycyclopentyl)-7-methoxy-6-((6-(1H-pyrazol-1-yl)pyridin-3-yl)methyl)-2,3-dihydro-4H-1,3-benzoxazin-4-one] |
|  |  | 112 | 0.027 | COc1ccc(Cc2cc3c(c(C)c2C)OCN([C@H]2COCC[C@@H]2O)C3=O)cc1 (single isomer, unassigned) [Example 17, 1,5-anhydro-2,4-dideoxy-2-(6-(4-methoxybenzyl)-7,8-dimethyl-4-oxo-2H-1,3-benzoxazin-3(4H)-yl)-threo-pentitol (optical isomer)] |
|  |  | 93 | 0.16 | Cc1c(Cc2ccc(Cl)nc2)cc2c(c1Cl)OCN(CC1CCCO1)C2=O (centres unmarked) [Example 87, 8-chloro-6-((6-chloropyridin-3-yl)methyl)-7-methyl-3-(tetrahydrofuran-2-ylmethyl)-2,3-dihydro-4H-1,3-benzoxazin-4-one] |
|  |  | 96 | 0.0018 | Cc1c(Cc2ccc(-n3cccn3)cc2)cc2c(c1F)OCN([C@H]1COCC[C@@H]1O)C2=O [Example 1, 8-fluoro-3-((3S,4S)-4-hydroxytetrahydro-2H-pyran-3-yl)-7-methyl-6-(4-(1H-pyrazol-1-yl)benzyl)-2,3-dihydro-4H-1,3-benzoxazin-4-one] |
